From patent US8293781B2, “Indole derivatives having cPLA2 inhibiting activity and applications and production methods of the same” (Daiichi Sankyo Company, Limited, priority 2007, dated 2012)
Counter-ions that a name gives are not always drawn.

How the values were obtained:
[1] = system: PGE2 production in mouse peritoneal exudate cells; test: LPS-induced PGE2 production system using mouse peritoneal exudate cells; format: cell-based; conditions: LPS 10 μg/ml, 6 hours
Method: For evaluation of the PGE2 production inhibiting activity, the lipopolysaccharide (LPS)-induced PGE2 production system using mouse peritoneal exudate cells with reference to the method of Kim et al. (see Kim, Y K et al., Biol Pharm Bull 25: 472, 2002) was used. That is, 2 ml of thioglycolate solution (made by Sigma, Brewer's Thioglycorate medium) per mice were intraperitoneally administered to 8-week old female C3H/HeN mice (Charles River Japan). After 4 days, a phosphate buffer saline (PBS) 5 ml was used to wash the abdominal cavity and the infiltrating cells were recovered. The recovered cells were suspended in a predetermined concentration in an RPMI1640 medium (Nacalai Tesque) containing 10% bovine fetal serum (BioWhittaker) and 10 μg/ml gentamycin (Invitrogen).
The infiltrating cell suspension 100 μl containing 2×10^5 cells per well was inoculated in a 96-well culture plate, then the test compound solution or solvent 50 μl was added. Under conditions of 5% CO2 and 37° C., this was precultured for 15 minutes, then LPS (made by Sigma: L-4524) solution 50 μl (final concentration of LPS of 10 μg/ml) was added, and the mixture was cultured for a further 6 hours. After the end of the culture, the culture supernatant was recovered and the PGE2 concentration in the supernatant was measured using an EIA kit (made by Amersham). Based on the measurement value, the test compound concentration suppressing 50% of the PGE2 production at the time of non-addition of a compound (IC50 value) was calculated.

[2] = system: PGD2 production in rat mast cell like cell line RBL-2H3; test: Antigen-induced PGD2 production system using RBL-2H3 sensitized by DNP specific IgE; format: cell-based; conditions: 0.5 h, RBL-2H3, anti-DNP-IgE sensitized, antigen 10 μg/ml, 30 minutes
Method: To evaluate the PGD2 production inhibiting activity, the antigen-induced PGD2 production system using rat mast cell like cell line RBL-2H3 sensitized by a dinitrophenol (DNP) specific IgE with reference to the method of Yamashita et al. (see Yamashita, M. et al., Br J Pharmacol 129: 367, 2000) was used. That is, rat mast cell like cell line RBL-2H3 cells were suspended in a Dulbecco's modified Eagle's medium (Nacalai Tesque) containing 10% bovine fetal serum (BioWhittaker) and 10 μg/ml gentamycin (Invitrogen). The infiltrating cell suspension 200 μl containing 1×10^5 cells per well was inoculated to 96-well culture plate and cultured over night under conditions of 5% CO2 and 37° C. The culture supernatant was removed, then the suspension was cultured for 2 hours in the presence of an anti-DNP-IgE antibody (1 μg/ml) for 2 hours to sensitize it. After the sensitization, the supernatant was removed and the test compound solution or solvent was added. The resultant product was precultured for 30 minutes, then 10 μg/ml of antigen (DNP-human serum albumin conjugate) was added to elicite PGD2 production.
30 minutes after antigen stimulus, the culture supernatant was recovered and the amount of PGD2 in the supernatant was measured using an EIA kit (made by Cayman). Based on the measurement value, the test compound concentration (IC50 value) suppressing the amount of PGD2 production at the time of nonaddition of the compound by 50% was calculated.

[3] = system: LTB4 production in rat mast cell like cell line RBL-2H3; test: Calcium ionophore-induced LTB4 production system using RBL-2H3; format: cell-based; conditions: 1 h, RBL-2H3, A23187 5 μM, one hour
Method: (§1) For the evaluation by LTB4 and Cys-LTs production inhibiting activity, the calcium ionophore-induced LTB4 and Cys-LTs production system using the rat mast cell like cell line RBL-2H3 with reference to the method of Ishiwara et al. (see Ishiwara M. et al., J Pharmacol Exp Ther 307: 583, 2003) was used. That is, rat mast cell like cell line RBL-2H3 cells were suspended in Dulbecco's modified Eagle's medium (Nacalai Tesque) containing 10% bovine fetal serum (BioWhittaker) and 10 μg/ml gentamycin (Invitrogen). The infiltrating cell suspension 200 μl containing 1×10^5 cells per well was inoculated to 96-well culture plate and cultured over night under conditions of 5% CO2 and 37° C. The culture supernatant was removed, then the test compound solution or solvent 50 μl was added. After 30 minutes preculture, calcium ionophore (A23187) was added to a final concentration of 5 μM to induce leukotriene production.
(§2) One hour after calcium ionophore stimulus, the culture supernatant was recovered and the amounts of LTB4 and Cys-LTs in the supernatant were measured using an EIA kit (made by Amersham). Based on the measurement values, the test compound concentrations suppressing 50% of the mediator production at the time of non-addition of a compound (IC50 value) were calculated.

[4] = system: Cys-LTs production in rat mast cell like cell line RBL-2H3; test: Calcium ionophore-induced Cys-LTs production system using RBL-2H3; format: cell-based; conditions: 1 h, RBL-2H3, A23187 5 μM, one hour
Method: as §1, §2

[5] = system: TXB2 production in whole blood; test: Calcium ionophore-induced TXB2 production system using whole blood; format: cell-based; conditions: Cavia porcellus, 0.25 h; Hartley guinea pig heparin blood diluted 2-fold, A23187 5 μM, 15 minutes
Method: For evaluation of the TXB2 production inhibiting activity, the calcium ionophore-induced TXB2 production system using whole blood with reference to the method of Alanko (see Alanko J., Prostaglandins 45: 193, 1993) was used. That is, heparin blood taken from Hartley guinea pigs was diluted 2-fold by an RPMI1640 medium (Nakalai Tesque) containing 10 μg/ml gentamycin (Invitrogen). The entire blood after dilution was inoculated in a 96-well culture plate in amounts of 200 μl per well, then the test compound solution or solvent was added. After 30 minutes preculture, calcium ionophore (A23187) was added to a final concentration of 5 μM to induce TXB2 production. 15 minutes after stimulus, the supernatant was recovered by centrifugal separation and the amount of TXB2 in the supernatant was measured using an EIA kit (Amersham).
Based on the measurement value, the test compound concentration suppressing 50% of the TXB2 production at the time of non-addition of a compound (IC50 value) was calculated.

[6] = system: TPA-induced mouse dermatitis model; test: TPA-induced mouse dermatitis model (ear thickness); format: in vivo; conditions: 50 mg/kg orally 30 minutes before TPA, 6 hours after TPA, C57BL/6 mice
Method: Phorbol ester (TPA) was applied to the ear to elicite acute inflammation having ear edema as a main symptom. In the present test model, it is known that arachidonic acid metabolites, constituting various lipid mediators, are involved in inflammation. By this Experiment, it is possible to evaluate the anti-inflammatory action in vivo of anti-inflammatory drugs acting on the arachidonic acid cascade.
The Experiment was performed with reference to the method of Chang et al. (see Chang J., Eur J Pharmacol 142: 197, 1987). That is, the ear of female C57BL/6 mice (Charles River Japan) were painted with 20 μl of TPA in an acetone solution (concentration 50 μg/ml) to induce dermatitis at the ear. The ear thicknesses before application of TPA and 6 hours after application of TPA were measured using a dial gauge and the increase in ear thickness caused by inflammation was calculated. The test compound or the 0.5% hydroxypropyl cellulose solution as vehicle was administered orally to the mice 30 minutes before application of TPA. Note that the number of mice used in the test was made six per group.
Based on the measurement value, the action of each test compound in suppressing the increase in ear thickness due to application of TPA was evaluated.

IC50 [1] [nM] | IC50 [3] [nM] | IC50 [4] [nM] | IC50 [5] [nM] | SMILES | IC50 [2] [nM] | Suppression rate of increase in ear thickness [6] [%]
800 | 20 | 400 | 580 | O=C(O)CCc1ccc2c(c1)c(CCc1ccccc1)cn2-c1ccc(OCCO)cc1 [Example 229, 3-{1-[4-(2-hydroxyethoxy)phenyl]-3-(2-phenylethyl)-1H-indol-5-yl}propanoic acid 2-amino-2-(hydroxymethyl)propane-1,3-diol salt (1:1)] | 890 | 23.9
280 | 260 | 890 | 5140 | O=C(O)CCc1ccc2c(c1)c(CCc1ccccc1)cn2-c1ccc(F)cc1 [Example 187, 3-[1-(4-fluorophenyl)-3-(2-phenylethyl)-1H-indol-5-yl]propanoic acid] | 430 | 25.4
850 | 380 | 1060 | 1370 | O=C(O)CCc1ccc2c(c1)c(CCc1ccccc1)cn2-c1ccc(OC(F)F)cc1 [Example 190, 3-{1-[4-(difluoromethoxy)phenyl]-3-(2-phenylethyl)-1H-indol-5-yl}propanoic acid 2-amino-2-(hydroxymethyl)propane-1,3-diol salt (1:1)] | 1110 | 27.6
1700 | 500 | 1260 | 2020 | COCc1ccc(-n2cc(CCc3ccccc3)c3cc(CCC(=O)O)ccc32)cc1 [Example 217, 3-{1-[4-(methoxymethyl)phenyl]-3-(2-phenylethyl)-1H-indol-5-yl}propanoic acid 2-amino-2-(hydroxymethyl)propane-1,3-diol salt (1:1)] | 1120 | 22.8
540 | 770 | 4170 | 1530 | O=C(O)CCc1ccc2c(c1)c(CCc1ccccc1)cn2-c1ccc(O)cc1 [Example 126, 3-[1-(4-hydroxyphenyl)-3-(2-phenylethyl)-1H-indol-5-yl]propanoic acid] | 1210 | 27.6

SMILES | IC50 [1] [nM] | IC50 [3] [nM] | IC50 [4] [nM] | IC50 [5] [nM] | IC50 [2] [nM] | Suppression rate of increase in ear thickness [6] [%]
O=C(O)CCc1ccc2c(c1)c(CCc1ccccc1)cn2-c1ccc(Oc2ccccc2)cc1 [Example 231, 3-[1-(4-phenoxyphenyl)-3-(2-phenylethyl)-1H-indol-5-yl]propanoic acid 2-amino-2-(hydroxymethyl)propane-1,3-diol salt (1:1)] | 500 | 180 | 300 | 540 | 760 | 30.4
